Test results taken from PubChem BioAssay (NCI).
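Cells were grown in 96-well plates and exposed to each compound for 48 hours at five concentrations; endpoints were interpolated linearly between bracketing concentrations, or set to the highest concentration if not reached. TGI: total growth inhibition.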

Key:
Experiment in all cases: growth of human tumour cells (NCI), 48 h
[1] = system: NCI-H23 lung
[2] = system: SK-MEL-5 melanoma
[3] = system: MOLT-4 leukemia
[4] = system: SNB-19 CNS
[5] = system: OVCAR-5 ovarian
[6] = system: SK-MEL-2 melanoma
[7] = system: SNB-75 CNS
[8] = system: SR leukemia
[9] = system: OVCAR-4 ovarian
[10] = system: LOX IMVI melanoma
[11] = system: RPMI-8226 leukemia
[12] = system: CCRF-CEM leukemia
[13] = system: SNB-78 CNS
[14] = system: ACHN renal
[15] = system: HCC-2998 colon
[16] = system: TK-10 renal
[17] = system: UO-31 renal
[18] = system: COLO 205 colon
[19] = system: UACC-62 melanoma
[20] = system: DLD-1 colon
[21] = system: RXF 393 renal
[22] = system: SN12C renal
[23] = system: SF-539 CNS
[24] = system: U251 CNS
[25] = system: NCI-H522 lung
[26] = system: HOP-92 NSCLC
[27] = system: RXF-631 renal
[28] = system: EKVX NSCLC
[29] = system: IGROV1 ovarian
[30] = system: M19-MEL melanoma
[31] = system: DMS 114 small cell lung
[32] = system: LXFL 529 NSCLC
[33] = system: SW-620 colon
[34] = system: NCI-H460 lung
[35] = system: SK-MEL-28 melanoma
[36] = system: HOP-62 NSCLC
[37] = system: NCI-H226 lung
[38] = system: M14 melanoma
[39] = system: K-562 leukemia
[40] = system: HCT-116 colon
[41] = system: SF-268 CNS
[42] = system: CAKI-1 renal
[43] = system: DMS 273 small cell lung
[44] = system: KM12 colon
[45] = system: SF-295 CNS
[46] = system: HCT-15 colon
[47] = system: XF 498 CNS
[48] = system: OVCAR-8 ovarian
[49] = system: SK-OV-3 ovarian
[50] = system: UACC-257 melanoma
[51] = system: KM20L2 colon
[52] = system: A549 NSCLC
[53] = system: HL-60(TB) leukemia
[54] = system: HT29 colon
[55] = system: A498 renal
[56] = system: OVCAR-3 ovarian
[57] = system: 786-0 renal
[58] = system: HOP-18 NSCLC
[59] = system: MALME-3M melanoma

Structure (SMILES): Cc1ccc(C)c(NC(=O)C(=O)C(C(=O)c2ccc3ccccc3c2)C2OC(=O)c3ccccc32)c1 (configuration not stated)
- TGI [1]: 54.8 µM
- TGI [2]: 31.5 µM
- TGI [3]: > 100 µM
- TGI [4]: 31.2 µM
- TGI [5]: 42.5 µM
- TGI [6]: 44.7 µM
- TGI [7]: 58.8 µM
- TGI [8]: > 100 µM
- TGI [9]: > 100 µM
- TGI [10]: 35.1 µM
- TGI [11]: > 100 µM
- TGI [12]: 64.9 µM
- TGI [13]: > 100 µM
- TGI [14]: 87.1 µM
- TGI [15]: 28.7 µM
- TGI [16]: 64.6 µM
- TGI [17]: 31.6 µM
- TGI [18]: 32.1 µM
- TGI [19]: 27.8 µM
- TGI [20]: 64.3 µM
- TGI [21]: 9.74 µM
- TGI [22]: 39.8 µM
- TGI [23]: 17.4 µM
- TGI [24]: 16.2 µM
- TGI [25]: 22.5 µM
- TGI [26]: 78 µM
- TGI [27]: 65.6 µM
- TGI [28]: 51.1 µM
- TGI [29]: 40.5 µM
- TGI [30]: 30.5 µM
- TGI [31]: 26.3 µM
- TGI [32]: 25.1 µM
- TGI [33]: 29.4 µM
- TGI [34]: 27.7 µM
- TGI [35]: 34.4 µM
- TGI [36]: 62.1 µM
- TGI [37]: 17.2 µM
- TGI [38]: 28.8 µM
- TGI [39]: > 100 µM
- TGI [40]: 24.9 µM
- TGI [41]: 23.2 µM
- TGI [42]: 52.6 µM
- TGI [43]: > 100 µM
- TGI [44]: 33.2 µM
- TGI [45]: 66.2 µM
- TGI [46]: 44.8 µM
- TGI [47]: 44 µM
- TGI [48]: 20.3 µM
- TGI [49]: 48.9 µM
- TGI [50]: 36.5 µM
- TGI [51]: 53.3 µM
- TGI [52]: 45.7 µM
- TGI [53]: 52 µM
- TGI [54]: > 100 µM
- TGI [55]: 47.4 µM

Structure (SMILES): CC1=C(C(=O)Nc2ccccc2C)C(c2ccc(Cl)cc2)C(C(=O)Nc2ccccc2C)=C(C)N1
- TGI [1]: > 100 µM
- TGI [2]: > 100 µM
- TGI [3]: > 100 µM
- TGI [4]: > 100 µM
- TGI [5]: > 100 µM
- TGI [6]: > 100 µM
- TGI [8]: > 100 µM
- TGI [9]: > 100 µM
- TGI [10]: > 100 µM
- TGI [11]: > 100 µM
- TGI [12]: > 100 µM
- TGI [13]: > 100 µM
- TGI [14]: > 100 µM
- TGI [15]: > 100 µM
- TGI [16]: > 100 µM
- TGI [17]: > 100 µM
- TGI [18]: > 100 µM
- TGI [19]: > 100 µM
- TGI [20]: > 100 µM
- TGI [21]: > 100 µM
- TGI [56]: > 100 µM
- TGI [22]: > 100 µM
- TGI [23]: > 100 µM
- TGI [24]: > 100 µM
- TGI [25]: > 100 µM
- TGI [26]: > 100 µM
- TGI [27]: > 100 µM
- TGI [28]: > 100 µM
- TGI [29]: > 100 µM
- TGI [30]: > 100 µM
- TGI [31]: > 100 µM
- TGI [32]: > 100 µM
- TGI [57]: > 100 µM
- TGI [33]: > 100 µM
- TGI [34]: > 100 µM
- TGI [35]: > 100 µM
- TGI [36]: > 100 µM
- TGI [37]: > 100 µM
- TGI [38]: > 100 µM
- TGI [39]: > 100 µM
- TGI [40]: > 100 µM
- TGI [58]: > 100 µM
- TGI [41]: > 100 µM
- TGI [42]: > 100 µM
- TGI [44]: > 100 µM
- TGI [45]: > 100 µM
- TGI [46]: > 100 µM
- TGI [47]: > 100 µM
- TGI [48]: > 100 µM
- TGI [59]: > 100 µM
- TGI [49]: > 100 µM
- TGI [50]: > 100 µM
- TGI [52]: > 100 µM
- TGI [53]: > 100 µM
- TGI [54]: > 100 µM

Structure (SMILES): Cn1c(=O)nc2n(-c3ccc(O)cc3)c3ccccc3nc-2c1=O
- TGI [1]: > 100 µM
- TGI [2]: > 100 µM
- TGI [3]: > 100 µM
- TGI [4]: > 100 µM
- TGI [5]: > 100 µM
- TGI [6]: > 100 µM
- TGI [7]: > 100 µM
- TGI [9]: > 100 µM
- TGI [11]: > 100 µM
- TGI [12]: > 100 µM
- TGI [13]: > 100 µM
- TGI [14]: > 100 µM
- TGI [15]: > 100 µM
- TGI [16]: > 100 µM
- TGI [17]: > 100 µM
- TGI [18]: > 100 µM
- TGI [19]: 52.5 µM
- TGI [20]: > 100 µM
- TGI [56]: 64.2 µM
- TGI [22]: > 100 µM
- TGI [23]: 59.7 µM
- TGI [24]: > 100 µM
- TGI [25]: > 100 µM
- TGI [26]: > 100 µM
- TGI [27]: > 100 µM
- TGI [28]: > 100 µM
- TGI [29]: > 100 µM
- TGI [30]: 81.1 µM
- TGI [31]: > 100 µM
- TGI [32]: > 100 µM
- TGI [57]: > 100 µM
- TGI [33]: > 100 µM
- TGI [34]: > 100 µM
- TGI [35]: > 100 µM
- TGI [36]: > 100 µM
- TGI [37]: > 100 µM
- TGI [38]: > 100 µM
- TGI [39]: > 100 µM
- TGI [40]: > 100 µM
- TGI [58]: > 100 µM
- TGI [41]: > 100 µM
- TGI [42]: > 100 µM
- TGI [43]: > 100 µM
- TGI [44]: > 100 µM
- TGI [45]: > 100 µM
- TGI [46]: > 100 µM
- TGI [47]: > 100 µM
- TGI [48]: > 100 µM
- TGI [59]: 69.4 µM
- TGI [49]: > 100 µM
- TGI [50]: > 100 µM
- TGI [51]: > 100 µM
- TGI [52]: > 100 µM
- TGI [53]: > 100 µM
- TGI [54]: > 100 µM
- TGI [55]: > 100 µM

Structure (SMILES): O=C1C2C3C=C4c5ccccc5N(c5ccccc5)C4(C2C(=O)N1c1ccccc1)C1C(=O)N(c2ccccc2)C(=O)C31 (configuration not stated)
- TGI [1]: > 100 µM
- TGI [3]: > 100 µM
- TGI [4]: > 100 µM
- TGI [5]: > 100 µM
- TGI [6]: > 100 µM
- TGI [7]: > 100 µM
- TGI [8]: > 100 µM
- TGI [10]: > 100 µM
- TGI [12]: > 100 µM
- TGI [13]: > 100 µM
- TGI [14]: > 100 µM
- TGI [15]: > 100 µM
- TGI [16]: > 100 µM
- TGI [17]: > 100 µM
- TGI [18]: > 100 µM
- TGI [20]: > 100 µM
- TGI [22]: > 100 µM
- TGI [24]: > 100 µM
- TGI [26]: 6.29 µM
- TGI [27]: > 100 µM
- TGI [30]: > 100 µM
- TGI [31]: > 100 µM
- TGI [32]: > 100 µM
- TGI [57]: > 100 µM
- TGI [33]: > 100 µM
- TGI [34]: > 100 µM
- TGI [35]: > 100 µM
- TGI [36]: > 100 µM
- TGI [38]: > 100 µM
- TGI [39]: > 100 µM
- TGI [40]: > 100 µM
- TGI [58]: > 100 µM
- TGI [41]: > 100 µM
- TGI [42]: > 100 µM
- TGI [44]: > 100 µM
- TGI [45]: > 100 µM
- TGI [46]: > 100 µM
- TGI [47]: > 100 µM
- TGI [48]: > 100 µM
- TGI [59]: > 100 µM
- TGI [50]: > 100 µM
- TGI [51]: > 100 µM
- TGI [52]: > 100 µM
- TGI [53]: > 100 µM
- TGI [54]: > 100 µM
- TGI [55]: 5.13 µM
